These are literature values, as cited in patent US12661367B2, “Streptomyces spororaveus strain and a new antibiotics against bacteria and fungi” (National Taipei University of Technology, priority 2022, dated 2026).

For series [1] the following is noted: orally used.

Turning to `C[C@@H]1C/C=C/C=C/C=C/C=C/[C@H](O[C@@H]2O[C@H](C)[C@@H](O)[C@H](N)[C@@H]2O)C[C@@H]2O[C@](O)(C[C@@H](O)C[C@H]3O[C@@H]3/C=C/C(=O)O1)C[C@H](O)[C@H]2C(=O)O` [natamycin], the solubility in water result was “nearly insoluble in water”. The bioavailability entry in series [1] is “low bioavailability”.
